molecular target: T1, human GlyT1b (Homo sapiens, UniProt P48067); assay: [3H] Glycine Uptake Assay (SPA) in recombinant hGlyT1b-CHO cells; assay type: cell-based; settings: Table 1
T1 construct: expressed in transfected cells
T1 sequence (P48067 1-652 isoform P48067-3): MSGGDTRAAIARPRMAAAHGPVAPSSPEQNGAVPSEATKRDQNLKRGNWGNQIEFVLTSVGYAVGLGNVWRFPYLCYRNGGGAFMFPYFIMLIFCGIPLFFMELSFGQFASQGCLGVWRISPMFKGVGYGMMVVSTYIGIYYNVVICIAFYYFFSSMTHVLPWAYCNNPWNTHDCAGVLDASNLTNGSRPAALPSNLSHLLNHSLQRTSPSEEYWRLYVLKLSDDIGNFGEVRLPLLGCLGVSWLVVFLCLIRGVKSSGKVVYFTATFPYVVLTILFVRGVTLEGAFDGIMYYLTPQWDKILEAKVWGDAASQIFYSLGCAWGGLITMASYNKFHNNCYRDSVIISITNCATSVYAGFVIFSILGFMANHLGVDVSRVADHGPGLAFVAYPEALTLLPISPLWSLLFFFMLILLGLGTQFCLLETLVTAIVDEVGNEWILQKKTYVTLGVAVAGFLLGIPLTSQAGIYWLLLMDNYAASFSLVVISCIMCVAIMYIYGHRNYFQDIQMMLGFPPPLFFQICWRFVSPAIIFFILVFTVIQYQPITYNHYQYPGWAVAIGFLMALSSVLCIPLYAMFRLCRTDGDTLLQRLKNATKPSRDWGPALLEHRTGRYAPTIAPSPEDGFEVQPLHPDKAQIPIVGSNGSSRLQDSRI
Method: A. [3H] Glycine Uptake Assay
Preparation of recombinant human GlyT1b-CHO cells (hGlyT1b-CHO). The human GlyT1b CDS (GC002087, NM_006934) was cloned downstream of a CMV promoter in a bicistronic expression vector containing a hygromycin B resistance gene. CHO-K1 cells (ATCC) were transfected with the recombinant vector containing GlyT1b using Lipofectamine 2000 (Invitrogen) and cultured in Ham's/F12 media supplemented with 10% fetal bovine serum, 2 mM L-glutamine at 37° C., 5% CO2, 90% humidity. Twenty-four hours after transfection, cells were diluted and switched to media containing 0.5 mg/ml hygromycin B. Antibiotic resistant cells were obtained after 21 days of culture in the presence of hygromycin B. Clonal stable cell lines were isolated by FACS single cell deposition into 96-well plates.
Cells used were Recombinant hGlyT1b/CHO. These cells were cultured in cell culture medium (Ham's/F12 (Modified) (Mediatech, 10-080-CM), containing 10% FBS, 2 mM L-glutamine (Invitrogen 25030-149) and 0.5 mg/mL hygromycin B (Invitrogen, 10687-010)) in 175 cm^2 flasks until near confluence before use in the assay.
Cell medium in a cell culture flask containing near confluent cells was removed and 5 mL of cell stripper was added to submerge all cells on the surface of the culture flask. Cell stripper was removed immediately and the flask incubated in a 37° C. incubator for ˜5 min. Cells were shaken loose and suspended in 5 mL of PBS. After splitting cells to initiate a new flask(s), the cells remaining were collected by centrifugation, counted, and resuspended in assay buffer to a density of ˜2 million/mL. The cell suspension was kept at room temperature before use. The assays buffer was 10 mM HEPES, pH 7.4, containing 150 mM NaCl, 5 mM KCl, 1.5 mM CaCl2, 1.5 mM MgCl2, 0.45 mg/mL L-alanine (added fresh), and 1.8 mg/mL D-glucose (added fresh).
WGA PTV beads were suspended in assay buffer (2 mg/ml) containing 60 nM [^3H]Glycine (PerkinElmer (NET-004, [2-^3H]Glycine, 53.3 Ci/mmol, 1 mCi/mL)) and 20 μM unlabeled glycine and the suspension was kept at room temperature before assay.
To the wells of an OptiPlate, 2 μl DMSO containing a test compound was spotted. This was followed by addition of 98 μl of cell suspension (˜1 million/ml final). After incubating cells with compound for ˜15 min, 100 μl of the SPA (200 μg/well final) and isotope mixture (30 nM isotope with 10 μM cold glycine, final) was added to initiate the glycine uptake. At 2 h, the plate was read on a TopCount to quantify SPA counts.

Row | SMILES | IC50 [nM]
1 | CSc1ncccc1C(=O)NC(c1ccccc1)C12CCC(CC1)N2C (single isomer, unassigned) [Example 2, (R*)—N-((7-methyl-7-azabicyclo[2.2.1]heptan-1-y)(phenyl)methyl)-2-(methylthio)nicotinamide] | 168
2 | CN1C2CCC1(C(NC(=O)c1cccc(C(F)(F)F)c1Cl)c1ccccc1)CC2 (stereo not drawn) [Example 17, 2-chloro-N-((7-methyl-7-azabicyclo[2.2.1]heptan-1-yl)(phenyl)methyl)-3-(trifluoromethyl)benzamide] | 17.9
3 | Cc1cccc(C)c1C(=O)NC(c1cccc(Br)c1)C12CCC(CC1)N2C (stereo not drawn) [Example 8, N-((3-bromophenyl)(7-methyl-7-azabicyclo[2.2.1]heptan-1-yl)methyl)-2,6-dimethylbenzamide] | 3
4 | CN1C2CCC1(C(NC(=O)c1ccnc(Cl)c1Cl)c1ccccc1)CC2 (single isomer, unassigned) [Example 15, (R*)-2,3-dichloro-N-((7-methyl-7-azabicyclo[2.2.1]heptan-1-yl)(phenyl)methyl)isonicotinamide] | 210
5 | CN1C2CCC1(C(NC(=O)c1cccc(Cl)c1Cl)c1ccccc1)CC2 (stereo not drawn) [Example 12, 2,3-dichloro-N-((7-methyl-7-azabicyclo[2.2.1]heptan-1-yl)(phenyl)methyl)benzamide] | 33.6
6 | COCCN1C2CCC1(C(NC(=O)c1c(C)cccc1C)c1ccncc1)CC2 (single isomer, unassigned) [Example 6, (R*)—N-((7-(2-methoxyethyl)-7-azabicyclo[2.2.1]heptan-1-yl)(pyridin-4-yl)methyl)-2,6-dimethylbenzamide] | 26
7 | CN1C2CCC1(C(NC(=O)c1cccc(Cl)c1Cl)c1ccccc1)CC2 (single isomer, unassigned) [Example 13, (R*)-2,3-dichloro-N-((7-methyl-7-azabicyclo[2.2.1]heptan-1-yl)(phenyl)methyl)benzamide] | 72
8 | Cc1c(C(=O)NC(c2ccccc2)C23CCC(CC2)N3C)cccc1C(F)(F)F (stereo not drawn) [Example 16, 2-methyl-N-((7-methyl-7-azabicyclo[2.2.1]heptan-1-yl)(phenyl)methyl)-3-(trifluoromethyl)benzamide] | 18.6
9 | Cc1ccc(C(NC(=O)c2c(C)cccc2C)C23CCC(CC2)N3C)o1 (stereo not drawn) [Example 9, 2,6-dimethyl-N-((7-methyl-7-azabicyclo[2.2.1]heptan-1-yl)(5-methylfuran-2-yl)methyl)benzamide] | 98

same assay, conditions: Table 2, unit from table title

Row | SMILES | IC50 [nM]
10 | Cc1ccc(C(NC(=O)c2c(C)cccc2C)C23CCC(CC2)N3C)cn1 (stereo not drawn) [Example 68] | 129
11 | CSc1ncccc1C(=O)N[C@H](c1ccccc1)C12CCC(CC1)N2C1CC1 [Example 57] | 45
12 | Cc1cc(F)cc(C)c1C(=O)NC(c1ccccc1)C12CCC(CC1)N2C (stereo not drawn) [Example 82] | 4
13 | Cc1c(F)cccc1C(=O)NC(c1ccccc1)C12CCC(CC1)N2C (single isomer, unassigned) [Example 63] | 76
14 | Cc1ccc(C(NC(=O)c2c(C)cccc2C)C23CCC(CC2)N3C)o1 (single isomer, unassigned) [Example 87] | 14
15 | Cc1cccc(C)c1C(=O)NC(c1ccncc1)C12CCC(CC1)N2C (stereo not drawn) [Example 37] | 6
16 | Cc1cccc(C)c1C(=O)NC(c1ccc(F)cc1)C12CCC(CC1)N2C (single isomer, unassigned) [Example 47] | 2
17 | CSc1ncccc1C(=O)NC(c1ccccc1)C12CCC(CC1)N2C(C)C (stereo not drawn) [Example 48] | 23
18 | Cc1cccc(C)c1C(=O)N[C@H](c1ccccc1)C12CCC(CC1)N2CC1CCC1 [Example 29] | 9
19 | CCN1C2CCC1(C(NC(=O)c1cccnc1SC)c1ccccc1)CC2 (single isomer, unassigned) [Example 73] | 46
20 | Cc1cccc(C)c1C(=O)N[C@H](c1ccccc1)C12CCC(CC1)N2CCN1CCCC1 [Example 69] | 51
21 | Cc1cccc(C)c1C(=O)N[C@H](c1ccccc1)C12CCC(CC1)N2CCC(F)(F)F [Example 58] | 3
22 | CCN1C2CCC1(C(NC(=O)c1c(Cl)cncc1Cl)c1ccccc1)CC2 (stereo not drawn) [Example 50] | 237
23 | COCCN1C2CCC1([C@H](NC(=O)c1ccccc1C)c1ccccc1)CC2 [Example 92] | 202
24 | COCCN1C2CCC1([C@H](NC(=O)c1ccc(F)cc1C)c1ccccc1)CC2 [Example 96] | 167

— patent publication US20120094995A1, “2-AZA-BICYCLO[2.2.1]HEPTANE COMPOUNDS AND USES THEREOF” (ASTRAZENECA AB, priority 2009, published 2012)
